Data taken from PubChem BioAssay AID330 (DTP/NCI, 2004).
Values joined by “and” are separate entries in the source; they are usually repeats but may differ in a detail not shown here. Equal entries are not always repeated. Inconclusive results and toxic doses are left out. The calls were made as follows: active = survival T/C of 150% or more; inactive = T/C below 125% in these data.

Test system: P388 leukemia ip, CD2F1 mice, survival T/C
Experiment: NCI In Vivo Anticancer Drug Screen. Data for tumor model P388 Leukemia (intraperitoneal) in CD2F1 (CDF1) mice
Conditions: endpoint: median survival time, higher = longer survival
Summary of the method: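 Mice carrying the transplanted tumor received test compound or vehicle. Survival was recorded in each group, and the value is the treated-group measurement divided by that of the vehicle-treated control group.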

[1] = dose: 50.0 mg/kg/injection, schedule: Q01DX009 (ip), vehicle: Klucel (hydroxypropylcellulose) (HPC)
[2] = dose: 12.5 mg/kg/injection, schedule: Q01DX009 (ip), vehicle: Klucel (hydroxypropylcellulose) (HPC)
[3] = dose: 25.0 mg/kg/injection, schedule: Q01DX009 (ip), vehicle: Klucel (hydroxypropylcellulose) (HPC)
[4] = dose: 100.0 mg/kg/injection, schedule: Q01DX009 (ip), vehicle: saline with Tween-80
[5] = dose: 100.0 mg/kg/injection, schedule: Q04DX003 (ip), vehicle: saline with Tween-80
[6] = dose: 200.0 mg/kg/injection, schedule: Q04DX003 (ip), vehicle: saline with Tween-80
[7] = dose: 400.0 mg/kg/injection, schedule: Q04DX003 (ip), vehicle: saline with Tween-80
[8] = dose: 50.0 mg/kg/injection, schedule: Q01DX005 (ip), vehicle: Klucel (hydroxypropylcellulose) (HPC)
[9] = dose: 100.0 mg/kg/injection, schedule: Q01DX005 (ip), vehicle: Klucel (hydroxypropylcellulose) (HPC)
[10] = dose: 12.5 mg/kg/injection, schedule: Q01DX009 (ip), vehicle: saline with Tween-80
[11] = dose: 25.0 mg/kg/injection, schedule: Q01DX009 (ip), vehicle: saline with Tween-80
[12] = dose: 50.0 mg/kg/injection, schedule: Q01DX009 (ip), vehicle: saline with Tween-80
[13] = dose: 200.0 mg/kg/injection, schedule: Q01DX005 (ip), vehicle: Klucel (hydroxypropylcellulose) (HPC)

Measured: T/C

COC(=O)C1c2ccccc2CC(=O)N1NC(=O)c1ccccc1 (stereo not given)
inactive: [1] 98 % of control | dose: 100.0 mg/kg/injection, schedule: Q01DX009 (ip), vehicle: Klucel (hydroxypropylcellulose) (HPC) 94 % of control

CCOc1ccc(-n2c(C)c(COC(=O)NC)c(COC(=O)NC)c2C)cc1
active: [2] 152 % of control and 166 % of control | [3] 150 % of control
inactive: [1] 109 % of control

CCCCCCCCCCCCCCCCS(=O)(=O)N/N=c1\cc(-c2ccccc2Cl)c2ccccc2n1C
inactive: dose: 12.5 mg/kg/injection, schedule: Q01DX009 (ip), vehicle: saline 92 % of control | dose: 25.0 mg/kg/injection, schedule: Q01DX009 (ip), vehicle: saline 90 % of control | dose: 50.0 mg/kg/injection, schedule: Q01DX009 (ip), vehicle: saline 89 % of control and 90 % of control | dose: 200.0 mg/kg/injection, schedule: Q01DX009 (ip), vehicle: saline 89 % of control

S=c1[nH]c2cc(Cl)ccc2s1
inactive: [4] 109 % of control | [5] 100 % of control | [6] 104 % of control | [7] 109 % of control

COc1ncnc2nc(Cl)[nH]c12
inactive: [8] 100 % of control | [9] 102 % of control

C=CC(C)(C)C1Oc2cc(O)ccc2C(=O)C1c1ccc(OC)c(OC)c1O (stereo not given)
inactive: dose: 100.0 mg/kg/injection, schedule: Q04DX003 (ip), vehicle: Klucel (hydroxypropylcellulose) (HPC) 92 % of control | dose: 200.0 mg/kg/injection, schedule: Q04DX003 (ip), vehicle: Klucel (hydroxypropylcellulose) (HPC) 100 % of control | dose: 400.0 mg/kg/injection, schedule: Q04DX003 (ip), vehicle: Klucel (hydroxypropylcellulose) (HPC) 92 % of control

COc1cc2ccnc(C3(O)CCN(C)CC3)c2cc1OC
inactive: dose: 6.25 mg/kg/injection, schedule: Q01DX009 (ip), vehicle: Klucel (hydroxypropylcellulose) (HPC) 94 % of control | [2] 98 % of control | [3] 93 % of control | dose: 50.0 mg/kg/injection, schedule: Q01DX001 (ip), vehicle: Klucel (hydroxypropylcellulose) (HPC) 102 % of control | dose: 100.0 mg/kg/injection, schedule: Q01DX001 (ip), vehicle: Klucel (hydroxypropylcellulose) (HPC) 105 % of control | dose: 200.0 mg/kg/injection, schedule: Q01DX001 (ip), vehicle: Klucel (hydroxypropylcellulose) (HPC) 97 % of control

COC1/C=C/OC2(C)Oc3c(C)c(O)c4c(O)c(c(/C=N/NC5C6CC7CC(C6)CC5C7)c(O)c4c3C2=O)NC(=O)/C(C)=C/C=C/C(C)C(O)C(C)C(O)C(C)C(OC(C)=O)C1C (stereo not given)
inactive: [10] 106 % of control | [11] 109 % of control | [12] 113 % of control and 95 % of control

CCCCCCCCCCCC1C=CCC1 (stereo not given)
inactive: dose: 100.0 mg/kg/injection, schedule: Q01DX001 (ip), vehicle: saline 99 % of control | dose: 200.0 mg/kg/injection, schedule: Q01DX001 (ip), vehicle: saline 100 % of control | dose: 400.0 mg/kg/injection, schedule: Q01DX001 (ip), vehicle: saline 100 % of control

CN(CCO)C1=CC(=O)C(N2c3ccccc3Nc3cc(O)c(N(C)CCO)cc32)=CC1=O
inactive: dose: 50.0 mg/kg/injection, schedule: Q01DX009 (ip), vehicle: suspension in saline 101 % of control | dose: 100.0 mg/kg/injection, schedule: Q01DX009 (ip), vehicle: suspension in saline 99 % of control | dose: 200.0 mg/kg/injection, schedule: Q01DX009 (ip), vehicle: suspension in saline 105 % of control

CCNC(=O)CCC(NS(=O)(=O)c1ccccc1)C(=O)O (stereo not given)
inactive: dose: 100.0 mg/kg/injection, schedule: Q04DX002 (ip), vehicle: Klucel (hydroxypropylcellulose) (HPC) 103 % of control | dose: 200.0 mg/kg/injection, schedule: Q04DX002 (ip), vehicle: Klucel (hydroxypropylcellulose) (HPC) 97 % of control | dose: 400.0 mg/kg/injection, schedule: Q04DX002 (ip), vehicle: Klucel (hydroxypropylcellulose) (HPC) 96 % of control

O=C(NN1C(=O)CS(=O)(=O)C1c1ccc(Cl)cc1Cl)c1ccncc1 (stereo not given)
inactive: dose: 50.0 mg/kg/injection, schedule: Q01DX005 (ip), vehicle: saline with Tween-80 100 % of control | dose: 100.0 mg/kg/injection, schedule: Q01DX005 (ip), vehicle: saline with Tween-80 100 % of control | dose: 200.0 mg/kg/injection, schedule: Q01DX005 (ip), vehicle: saline with Tween-80 102 % of control

CN(C)[C@@H]1C(=O)C(C(=O)NCc2nc3[nH]cnc(=S)c3[nH]2)=C(O)[C@@]2(O)C(=O)C3=C(O)c4c(O)cccc4[C@@](C)(O)[C@H]3C[C@@H]12
inactive: [4] 100 % of control | [5] 95 % of control | dose: 200.0 mg/kg/injection, schedule: Q01DX009 (ip), vehicle: saline with Tween-80 100 % of control | [6] 95 % of control | dose: 400.0 mg/kg/injection, schedule: Q01DX009 (ip), vehicle: saline with Tween-80 110 % of control | [7] 100 % of control

CNC(=O)Oc1ccc(Nc2ccccc2)cc1
inactive: dose: 60.0 mg/kg/injection, schedule: Q01DX005 (ip), vehicle: Klucel (hydroxypropylcellulose) (HPC) 105 % of control | dose: 120.0 mg/kg/injection, schedule: Q01DX005 (ip), vehicle: Klucel (hydroxypropylcellulose) (HPC) 99 % of control | dose: 240.0 mg/kg/injection, schedule: Q01DX005 (ip), vehicle: Klucel (hydroxypropylcellulose) (HPC) 97 % of control

CN1CCC(CN2c3ccccc3Sc3ccccc32)C1 (stereo not given)
inactive: [10] 104 % of control | [11] 107 % of control | [12] 116 % of control

N#CCCN(N)S(=O)(=O)c1ccc(Cl)cc1
inactive: [8] 97 % of control | [9] 99 % of control | [13] 96 % of control

Nc1nc2c(=O)[nH]c(=O)[nH]c2n1C1OC(CO)C(O)C1O (stereo not given)
inactive: dose: 60.0 mg/kg/injection, schedule: Q01DX005 (ip), vehicle: saline with Tween-80 117 % of control

CC1=C/C(O)CC(=O)Cc2nc(co2)C(=O)N2CCC=C2C(=O)OC(C(C)C)C(C)/C=C\C(=O)NC/C=C\1 (stereo not given)
inactive: [13] 111 % of control | dose: 400.0 mg/kg/injection, schedule: Q01DX005 (ip), vehicle: Klucel (hydroxypropylcellulose) (HPC) 114 % of control | dose: 1.0 micrograms/kg/injection, schedule: Q01DX009 (ip), vehicle: Klucel (hydroxypropylcellulose) (HPC) 104 % of control and 107 % of control and 115 % of control | dose: 2.0 micrograms/kg/injection, schedule: Q01DX009 (ip), vehicle: Klucel (hydroxypropylcellulose) (HPC) 111 % of control and 114 % of control and 121 % of control | dose: 4.0 micrograms/kg/injection, schedule: Q01DX009 (ip), vehicle: Klucel (hydroxypropylcellulose) (HPC) 111 % of control and 112 % of control and 121 % of control | dose: 8.0 micrograms/kg/injection, schedule: Q01DX009 (ip), vehicle: Klucel (hydroxypropylcellulose) (HPC) 104 % of control and 111 % of control and 123 % of control

CC1=C(CO)C(=O)O[C@@H]([C@@H](C)[C@H]2CC[C@H]3[C@@H]4C[C@H]5O[C@]56[C@@H](O)C=CC(=O)[C@]6(C)[C@H]4CC[C@]23C)C1
inactive: dose: 2.5 mg/kg/injection, schedule: Q04DX003 (ip), vehicle: saline 102 % of control and 103 % of control | dose: 5.0 mg/kg/injection, schedule: Q04DX003 (ip), vehicle: saline 100 % of control and 103 % of control | dose: 10.0 mg/kg/injection, schedule: Q04DX003 (ip), vehicle: saline 109 % of control and 110 % of control | dose: 20.0 mg/kg/injection, schedule: Q04DX003 (ip), vehicle: saline 102 % of control and 116 % of control | dose: 40.0 mg/kg/injection, schedule: Q04DX003 (ip), vehicle: saline 109 % of control and 123 % of control

CN(C)CCC=C1c2ccccc2C=Cc2ccccc21
inactive: dose: 12.5 mg/kg/injection, schedule: Q01DX005 (ip), vehicle: saline 103 % of control | dose: 25.0 mg/kg/injection, schedule: Q01DX005 (ip), vehicle: saline 95 % of control | dose: 50.0 mg/kg/injection, schedule: Q01DX005 (ip), vehicle: saline 112 % of control

C=C(CN(C)C)C(=O)c1ccccc1
inactive: dose: 0.94 mg/kg/injection, schedule: Q01DX005 (ip), vehicle: saline 122 % of control | dose: 1.25 mg/kg/injection, schedule: Q01DX005 (ip), vehicle: saline 112 % of control | dose: 1.88 mg/kg/injection, schedule: Q01DX005 (ip), vehicle: saline 112 % of control | dose: 2.5 mg/kg/injection, schedule: Q01DX005 (ip), vehicle: saline 112 % of control | dose: 3.75 mg/kg/injection, schedule: Q01DX005 (ip), vehicle: saline 99 % of control and 97 % of control | dose: 5.0 mg/kg/injection, schedule: Q01DX005 (ip), vehicle: saline 98 % of control and 104 % of control
